# Assay results from patent US7858578B2, “Methods of inducing neuronal growth by a Fucose-α(1-2) galactose (fuc-α(1-2) gal) moiety and a lectin” (California Institute of Technology, priority 2004, dated 2010).
# Where a SMILES comes first, the peptide text is derived from it. The star is where a group is joined. Cbz = O=C(OCc1ccccc1)*
# Legend:
# [1] = system: hippocampal slices; settings: cited from earlier work
# [2] = system: hippocampal neurons; assay: Effects of deoxy-galactose sugars on neuronal morphology (anti-tau immunostaining); assay type: cell-based, rat; settings: for rescue of 2-dGal effects: 75 mM Gal for 2 days after 15 mM 2-dGal for 2 days
# Description: Hippocampal neurons were plated on poly-DL-ornithine-coated glass coverslips as described above. After one day in culture, the medium was replaced with fresh medium, and the small molecules (2-dGal, 3-Deoxy-D-Galactose (3-dGal), or D-Galactose (Gal)) were added. A dose-response experiment was initially performed to determine the minimum concentration of 2-dGal needed to elicit an effect. Neurons were treated with varying concentrations of 2-dGal (1, 5, 10, 15, or 30 mM in 25 μL PBS with 475 μL of supplemented Neurobasal medium) for 2 days before immunostaining with anti-tau antibodies as described above.
# Cells were treated as above under 4 different conditions: (1) no treatment for 2 days, (2) incubation with 15 mM 2-dGal for 2 days, (3) incubation with 15 mM 2-dGal for 2 days followed by incubation with 75 mM Gal for 2 days, or (4) incubation with 15 mM 3-dGal for 2 days. After adding the small molecules, cultures were incubated at 37° C., 5% CO2, then washed once with PBS, and immunostained with anti-tau antibody as described above.
# [3] = system: E18 cortical neurons; assay: Expression of synaptic proteins in cultured neurons (Western blotting); assay type: cell-based; settings: 15 mM for 3 days, neurons 7 DIV
# Description: FIG. 20. […] (A) E18 cortical neurons cultured for 7 DIV were treated with 15 mM of 2-dGal or 6-dGal for 3 days. Protein lysates were analyzed by Western blotting using antibodies selective for the indicated proteins. A significant reduction in the expression of synapsin Ib was observed, while other synapse-associated proteins were unaffected by the 2-dGal treatment. (B) Neurite retraction caused by 2-dGal is reduced in synapsin-deficient mice. Neurons from synapsin I-deficient or wild-type mice were cultured for 2 days, treated with 2-dGal for 3 days, and analyzed for mean neurite length.
# To examine the effects of 2-dGal on synapsin fucosylation in neurons, neurons were cultured for 7 DIV to allow for adequate expression of synapsin and subsequently treated with 2-dGal or 6-dGal for comparison. Cells were lysed and immunoblotted as described above. […] The expression of other synaptic proteins, including NSF, the synaptic vesicle protein synaptotagmin, the presynaptic plasma membrane protein syntaxin, and the postsynaptic proteins PSD-95, the AMPA receptor GluR1 subunit and spinophilin, was unchanged by the 2-dGal treatment.
# [4] = system: synapsin I expressed in HeLa cells; assay: Synapsin fucosylation and expression in synapsin I-transfected HeLa cells (immunoblotting); assay type: cell-based; settings: deoxy sugar for 24 h
# Description: (§1) FIG. 19. Inhibition of synapsin fucosylation using 2-dGal decreases the expression and half-life of synapsin I. (A) Effects of 2-dGal and 6-dGal on synapsin fucosylation (left panel) and synapsin expression (right panel) levels. Synapsin I-transfected HeLa cells were treated with the indicated amounts of the deoxy sugar for 24 h. Fucosylation and synapsin expression levels were measured by immunoblotting with antibody A46-B/B10 and an anti-synapsin antibody, respectively. […] Synapsin I-transfected HeLa cells were treated with 2-dGal or a vehicle control (PBS), pulse labeled with ^35S-L-cysteine and ^35S-L-methionine as described in Materials and Methods, and chased for the indicated times. ^35S-labeled synapsin levels were measured by autoradiography. (C) Inhibition of the calcium-activated protease calpain using a calpain inhibitor peptide or calpeptin protects synapsin from degradation. […] Synapsin I-transfected HeLa cells were treated with the indicated inhibitors or vehicle control (DMSO, PBS or MeOH) in the presence or absence of 2-dGal for 15 h. Following lysis, the cell extracts were analyzed for synapsin expression levels by immunoblotting.
# The effects of 2-dGal on synapsin I expressed in HeLa cells were next investigated. Cell lysates containing equivalent amounts of transfected protein were resolved by SDS-PAGE, and the fucosylation and protein levels of synapsin were measured by immunoblotting, using methods described above.
# [5] = system: binding of antibody A46-B/B10 to bovine synapsin I; assay: Competition ELISA; settings: competitors 0.078-5 mM
# Description: To gain insight into the structural determinants recognized by antibody A46-B/B10, competition enzyme-linked immunosorbent assay (ELISA) experiments were performed using a series of fucose analogs (FIG. 12 A, B). Purified bovine synapsin Ia/Ib (Ueda, T., et al., J. Biol. Chem., 252:5155-5163 (1977)) was a supplied by Drs. P. Greengard and A. Nairn (The Rockefeller University, New York, N.Y.). The protein was immobilized on a microtiter plate by incubation in 50 mM NaHCO3, pH 9.0 at 4° C. overnight. Antibody A46-B/B10 (0.02 mg/mL) and the competitors (0.078-5 mM) were incubated in TBST (50 mM Tris-HCl pH 7.4, 150 mM NaCl, 0.1% Tween-20) at 4° C. overnight and then transferred to the microtiter plate. The wells were washed with TBST and incubated with a goat anti-mouse secondary antibody conjugated to alkaline phosphatase (1:500) at rt for 1 h. The wells were washed with TBST and developed with p-nitrophenyl phosphate. Inhibition curves were generated using PRISM (GraphPAD Software, Inc.).
# Synapsin Ia and Ib from bovine brain were immobilized on a microtiter plate, and binding of antibody A46-B/B10 to synapsin was assessed in the presence of varying concentrations of the competitors (see FIG. 12A for structures of the competitor molecules). […] (Haselhorst, T., et al., J. Am. Chem. Soc., 123:10705-10714 (2001))
# [6] = system: synapsin I-transfected HeLa cells; assay: Synapsin degradation with inhibitors of protein degradation with or without 2-dGal; assay type: cell-based; settings: with 2-dGal, 15 h
# Description: as §1
# To investigate the molecular mechanisms responsible for synapsin degradation, cells expressing synapsin were treated with various inhibitors of protein degradation in the presence or absence of 2-dGal. Specifically, the lysosomal inhibitors bafilomycin A1 and ammonium chloride, the proteasome inhibitor MG132, and two inhibitors of the calcium-dependent protease calpain, were used.
# [7] = system: hippocampal neurons; assay: Binding of biotinylated probe to cultured hippocampal neurons (streptavidin-AlexaFluor 488 imaging); assay type: cell-based, rat; settings: 3 mM, 10 μM PAO
# Description: Hippocampal neurons were cultured using a procedure modified from Goslin and Banker, in Culturing Nerve Cells, Banker, G., Goslin, K., Eds., pp. 251-281, MIT Press: Cambridge, Mass. 1991. Briefly, the hippocampi of embryonic day 18 (E18) rats were dissected and transferred to 4.5 mL of ice-cold Calcium and Magnesium Free-Hank's Balanced Salt Solution (CMF-HBSS). Trypsin (2.5%, no EDTA) was added to 5 mL, and the tissue was incubated for 15 min at 37° C. The trypsin solution was removed and the tissue sample washed three times with 5 mL of CMF-HBSS. Cells were then dissociated from the tissue in 1 mL of CMF-HBSS by passing through a P1000 pipet tip twenty times. The cells were counted, diluted into Minimal Eagle's Medium (MEM) plus 10% fetal bovine serum, and seeded on poly-DL-ornithine-coated glass coverslips (Carolina Biological) at a density of 75 cells/mm2 (100 μL/coverslip) for 30 min. After this time, 500 μL of supplemented Neurobasal medium (47.5 mL Neurobasal medium without Lglutamine; 0.5 mL L-glutamine (200 mM); 0.5 mL penicillin/streptomycin (10,000 U/mL); 0.5 mL antibiotic-antimycotic (100× stock), 1.0 mL B-27 serum-free supplement (50× stock); 50 μL of 0.5 M kynurenic acid in 1 N NaOH) was added to each coverslip. The use of kynurenic acid to block glutamate receptor ion channels and enhance neuronal health and survival is standard protocol for neuronal cultures. Id. The cultures were maintained in 5% CO2 at 37° C. in supplemental Neurobasal medium.
# After 23 days in culture, the medium was replaced, and neurons were treated with the endocytosis inhibitor phenylarsine oxide (PAO; 4 μL in DMSO, final concentration 10 μM) (Nouel, D., et al., J. Neurosci. 17:1795-1803 (1997)) and either compound III (24 μL in PBS, final concentration 3 mM), or biotin (24 μL in PBS, final concentration 3 mM), in supplemented Neurobasal medium (400 μL final volume) for 1 h at 37° C., 5% CO2. After 1 h, neurons were rinsed 2 times with PBS, fixed in 4% paraformaldehyde for 20 min at rt, washed 2 times with PBS, permeabilized in 0.3% Triton X-100 for 5 min at rt, and washed 2 times with PBS. Non-specific binding was blocked with 3% BSA for 1 h at rt and then rinsed one time with PBS. Compound III was detected with streptavidin conjugated to AlexaFluor 488 (1:200, Molecular Probes). Dye-conjugated streptavidin was added in 3% BSA for 1 h at 37° C. and the excess reagent washed off 5 times with PBS. Coverslips were then mounted onto slides with Vectashield, sealed, and imaged using confocal laser microscopy. Results can be seen in FIG. 2.
# De-lipidation was performed on some samples following the protocol of Yavin, E. et al., J. Neurosci. Res. 9:229-237 (1983). Briefly, after 23 days in culture, cells were rinsed once with PBS then exposed to MeOH/CHCl3 (½ by vol.) for 15 min at −80° C. This procedure fixes the cells to the coverslip and extracts cellular lipids. After removing the MeOH/CHCl3 mixture, coverslips were dried at rt then incubated with 3% BSA for 1 hr at rt. After one rinse with PBS, neurons were treated with PAO and the procedure described above was followed.
molecule,measurement,setting,value
2′fucosyllactose,effect on LTP,[1],enhance LTP
"O=C[C@H](O)C[C@@H](O)[C@H](O)CO [Compound 3-dGal, 3-Deoxy-D-Galactose]",effect on neurite outgrowth,[2]; 15 mM for 2 days,no impact on neurite outgrowth
"C[C@@H](O)[C@H](O)[C@H](O)[C@@H](O)C=O [Compound 6-dGal, 6-deoxy-D-galactose]",expression of synapsin I,[3],no effect
same,fucosylation level of synapsin,[4],no effect
same,level of synapsin protein,[4],no effect
O=C[C@H](O)[C@@H](O)[C@H](O)[C@H](O)CO [D-glucose],inhibition of antibody binding to synapsin Ia and Ib,[5],did not compete
"CCO[C@@H]1O[C@H](CO)[C@H](O)[C@H](O)[C@H]1O[C@@H]1O[C@@H](C)[C@@H](O)[C@@H](O)[C@@H]1O [Fucα(1-2)Gal-β-OEt, Ethyl O-(α-L-fucopyranosyl)-(1-2)-β-D-galactopyranoside]",inhibition of antibody binding to synapsin Ia and Ib,[5],selectively inhibited
"O=C[C@H](O)[C@@H](O)[C@@H](O)[C@H](O)CO [Gal, D-Galactose]",inhibition of antibody binding to synapsin Ia and Ib,[5],did not compete
same,rescue of 2-dGal effects,[2],rescued
same,rescue of 2-dGal effects,[2]; listed as D-galactose,regeneration of the neuronal processes
"CCOC1OC(C)C(O)C(O)C1O [L-Fuc-α-OEt, ethyl α/β-L-fucopyranoside]",IC50 (compared in words),[5],comparable to that of the disaccharide Fucα(1-2)Gal-β-OEt
same,inhibition of antibody binding to synapsin Ia and Ib,[5],effective at inhibiting antibody binding
C[C@H](O)[C@@H](O)[C@@H](O)[C@H](O)C=O [L-fucose],IC50 (compared in words),[5],comparable to that of the disaccharide Fucα(1-2)Gal-β-OEt
same,inhibition of antibody binding to synapsin Ia and Ib,[5],effective at inhibiting antibody binding
same,effect on LTP,[1],enhance LTP
CC(C)C[C@@H](C=O)NC(=O)[C@H](CC(C)C)NC(=O)[C@H](CC(C)C)NC(=O)OCc1ccccc1 [MG132] (Cbz-Leu-Leu-Leu-aldehyde),rescue of synapsin from 2-dGal-induced degradation,[6],no effect on synapsin degradation
CC(=O)N[C@H]1C(O)O[C@H](CO)[C@@H](O)[C@@H]1O (stereo partly drawn) [N-acetyl-D-glucosamine],inhibition of antibody binding to synapsin Ia and Ib,[5],did not compete
Cl.N [ammonium chloride],rescue of synapsin from 2-dGal-induced degradation,[6],no effect on synapsin degradation
CO/C1=C\C(C)=C\[C@@H](C)[C@@H](O)[C@@H](C)C/C(C)=C/C=C/[C@H](OC)[C@@H]([C@@H](C)[C@@H](O)[C@H](C)[C@@]2(O)C[C@@H](O)[C@H](C)[C@@H](C(C)C)O2)OC1=O [bafilomycin A1],rescue of synapsin from 2-dGal-induced degradation,[6],no effect on synapsin degradation
O=C(O)CCCC[C@@H]1SC[C@@H]2NC(=O)N[C@@H]21 [biotin],labeling of neurons after de-lipidation,[7]; neurons de-lipidated with MeOH/CHCl3,minor binding of the biotin alone to the cell body but not the neurites
same,binding to hippocampal neurons,"[7]; 1 h, E18 neurons 23 days in vitro",this binding is not between the biotin moieties and the neuron
CCCC[C@@H](C=O)NC(=O)[C@H](CC(C)C)NC(=O)OCc1ccccc1 [calpeptin],rescue of synapsin from 2-dGal-induced degradation,[6],rescued the effects of 2-dGal
